Assay results from patent publication US20140357512A1, “HISTONE DEACETYLASE (HDAC) BIOMARKERS IN MULTIPLE MYELOMA” (priority 2013, published 2014).

System: human myeloma cell line MM.1S
Assay: SILAC acetylated-lysine peptide profiling, HDAC inhibitor vs DMSO (light/heavy ratio)
Type: cell-based
Excerpt: An embodiment of the invention comprises utilizing the SILAC method in order to quantitate changes in protein expression between two or more populations of cells. The SILAC method is a technique based on mass spectrometry that detects differences in protein abundance among samples using non-radioactive isotopic labeling. The SILAC method is known in the art, and described in detail in Ong et al., “Stable Isotope Labeling by Amino Acids in Cell Culture, SILAC, as a Simple and Accurate Approach to Expression Proteomics”, Molecular & Cellular Proteomics, vol. 1, pp. 376-386 (2002), which is incorporated herein by reference in its entirety.
Briefly, the SILAC method involves growing two populations of cells in cell culture. The first population of cells is grown in growth media containing normal amino acids (“normal media”). The second population of cells is grown in media lacking a standard essential amino acid (such as lysine), but is then supplemented with a non-radioactive, isotopically labeled form of that essential amino acid (such as lysine labeled with ^13C atoms, rather than normal ^12C atoms), which is called “heavy media”. When the two populations of cells are each growing in the medium, they incorporate the amino acids into all of their proteins. The growth of cells maintained in the heavy media is no different from that in normal media. All peptides containing the heavy amino acids are heavier than their normal counterparts. The cells from each of the two populations of cells are lysed. The lysates from each of the two cell populations are then combined. The combined cell lysates are then analyzed by mass spectrometry. Pairs of chemically identical peptides of different stable isotope composition can be differentiated in a mass spectrometer due to their difference in mass. The ratio of peak intensities in the mass spectrum for such peptide pairs reflects the abundance ratio for the two proteins.
This example describes SILAC studies that were performed to compare the effects of three different HDAC inhibitors (Compound A, Compound B, and tubastatin A) to a control on a human multiple myeloma cell line. The HDAC inhibitors were also compared amongst themselves to determine differences in their effects.
A human myeloma cell line MM.1S was grown using either ^12C (light) or ^13C (heavy) lysine containing culture medium. The “heavy” cells were treated with DMSO as the control, and the “light” cells were treated with a single HDAC inhibitor at 37° C. for 6 hours. The heavy and light cells were lysed, and the lysates were mixed in 1:1 ratio and digested with the protease trypsin. The acetylated lysine containing peptides (due to the action of the HDAC inhibitor) in the digested peptide pool were captured by a non-specific anti-acetylated lysine antibody cocktail (the antibodies identify both light and heavy acetylated peptides), and subjected to mass spectrometry analysis in order to identify thousands of individual peptides.
Thousands of peptides were identified in pairs (^12C and ^13C) due to their known mass differences. The amino acid sequence and quantitative ratio (Light/Heavy) of a given peptide in two differentially treated cell lysates were then determined and annotated with their possible protein (gene) sources.
As stated above, three HDAC inhibitors (Compound A, Compound B, and Tubastatin A) were used. Thus, the SILAC method was performed three times, with a different HDAC inhibitor compared to a control each time. Accordingly, there are three pairs of quantitative data in the table below, i.e., Compound A:DMSO, Compound B:DMSO, and Tubastatin A:DMSO. A cut-off of 1.30 fold of change (increase or decrease) was then used to determine “changed” or “+” in the table, and any peptides with a fold of change less than 1.3 fold were determined to be “unchanged” or “0” in the table. Those peptides that were not identified were marked as “NA” in the table. […]

O=C(NO)c1cnc(NC2(c3cccc(F)c3)CCCCC2)nc1 [Compound B, 2-((1-(3-fluorophenyl)cyclohexyl)amino)-N-hydroxypyrimidine-5-carboxamide]
light to heavy ratio (L/H ratio) of acetylated peptide, log 2 scale (NK(ac)[…] (SEQ ID NO: 237), Vesicle-associated membrane protein 8 [47], VAMP8): 0.00
light to heavy ratio (L/H ratio) of acetylated peptide, log 2 scale (NLDK(ac)[…] (SEQ ID NO: 159), Aspartate aminotransferase mitochondrial [94], GOT2): 0.00
L/H ratio of acetylated peptide (NLK(ac)NEITK (SEQ ID NO: 380), Isoform 1 of Coatomer subunit alpha [441], COPA): 0.40 log 2
L/H ratio of acetylated peptide (NLPFSVENK(ac)WSLLAK (SEQ ID NO: 382), Cytochrome c oxidase subunit 7C mitochondrial [34], COX7C): −0.87 log 2
L/H ratio of acetylated peptide ADKDYHFK(ac)[…] (SEQ ID NO: 61) (NPM1 [32], log 2 scale, drug vs DMSO): 0.00
L/H ratio of acetylated peptide GVTQFGNK(ac)[…] (SEQ ID NO: 18) (NUDT21 [23], log 2 scale, drug vs DMSO): 0.50
L/H ratio of acetylated peptide (NVQQTVSAK(ac)GPPEK(ac)R (SEQ ID NO: 416), Mediator of RNA polymerase II transcription subunit 6 [243:248], MED6): 0.49 log 2
L/H ratio of acetylated peptide (NVYK(ac)FELDTSER (SEQ ID NO: 444), Dolichyl-diphosphooligosaccharide--protein glycosyltransferase subunit 2 [460], RPN2): 0.54 log 2
light to heavy ratio (L/H ratio) of acetylated peptide FCLSK(ac)PGVYK (SEQ ID NO: 345) (Nodal modulator 1 [630], NOMO3, NOMO1, drug:DMSO): 0.59 log 2
light to heavy ratio (L/H ratio) of acetylated peptide […](ac)R (SEQ ID NO: 532) (Nucleosome assembly protein 1-like 1 [116], gene NAP1L1, inhibitor:DMSO): 0.00 log 2
L/H ratio of acetylated peptide PSHLTNK(ac)FEDK (SEQ ID NO: 65) (PDIA3 [214], log 2 scale, drug vs DMSO): 0.00
L/H ratio of acetylated peptide GEK(ac)FVMQEEFSR (SEQ ID NO: 64) (PDIA3 [335], log 2 scale, drug vs DMSO): 0.00
L/H ratio of acetylated peptide SLLGK(ac)DVLFLK (SEQ ID NO: 67) (PGK1 [91], log 2 scale, drug vs DMSO): 0.00
L/H ratio of acetylated peptide SIYGEK(ac)FEDENFILK (SEQ ID NO: 68) (PPIA [82], log 2 scale, drug vs DMSO): 0.00
L/H ratio of acetylated peptide VIFGLFGK(ac)TVPK (SEQ ID NO: 70) (PPIB [67], log 2 scale, drug vs DMSO): 0.00
L/H ratio of acetylated peptide TVPK(ac)[…] (SEQ ID NO: 69) (PPIB [71], log 2 scale, drug vs DMSO): 0.00
L/H ratio of acetylated peptide VIK(ac)[…] (SEQ ID NO: 71) (PPIB [98], log 2 scale, drug vs DMSO): 0.00
L/H ratio of acetylated peptide IYGFYDECK(ac)R (SEQ ID NO: 72) (PPP1CC [141], log 2 scale, drug vs DMSO): 0.00
light to heavy ratio (L/H ratio) of acetylated peptide TAWLDGK(ac)HVVFGK (SEQ ID NO: 592) (Peptidyl-prolyl cis-trans isomerase B [165], gene PPIB, inhibitor:DMSO): 0.00 log 2
light to heavy ratio (L/H ratio) of acetylated peptide FPDENFK(ac)LK (SEQ ID NO: 347) (Peptidyl-prolyl cis-trans isomerase C [123], PPIC, drug:DMSO): −1.00 log 2
light to heavy ratio (L/H ratio) of acetylated peptide HVVFGK(ac)VK (SEQ ID NO: 576) (Peptidylprolyl isomerase A (Cyclophilin A) (PPIA) pseudogene [141], gene PPIAP26, inhibitor:DMSO): 0.00 log 2
light to heavy ratio (L/H ratio) of acetylated peptide LAK(ac)YFFNK (SEQ ID NO: 604) (Periodic tryptophan protein 2 homolog [279], gene PWP2, inhibitor:DMSO): 0.00 log 2
light to heavy ratio (L/H ratio) of acetylated peptide […](ac)DELKK (SEQ ID NO: 346) (Poly [ADP-ribose] polymerase 1 [249], PARP1, drug:DMSO): 0.83 log 2
light to heavy ratio (L/H ratio) of acetylated peptide FVVEK(ac)AEQQK (SEQ ID NO: 263) (Prohibitin [202], PHB, drug:DMSO): 0.00 log 2
light to heavy ratio (L/H ratio) of acetylated peptide FEYK(ac)YSFK (SEQ ID NO: 340) (Protein ERGIC-53 [49], LMAN1, drug:DMSO): −0.52 log 2
light to heavy ratio (L/H ratio) of acetylated peptide HFAFK(ac)[…] (SEQ ID NO: 554) (Protein FAM3C [72], gene FAM3C, inhibitor:DMSO): 0.00 log 2
light to heavy ratio (L/H ratio) of acetylated peptide GYPTIK(ac)FFR (SEQ ID NO: 541) (Protein disulfide-isomerase [103], gene P4HB, inhibitor:DMSO): 0.00 log 2
light to heavy ratio (L/H ratio) of acetylated peptide THILLFLPK(ac)SVSDYDGK (SEQ ID NO: 297) (Protein disulfide-isomerase [263], P4HB, drug:DMSO): 0.00 log 2
light to heavy ratio (L/H ratio) of acetylated peptide VLVGK(ac)[…] (SEQ ID NO: 303) (Protein disulfide-isomerase [375], P4HB, drug:DMSO): 0.00 log 2
light to heavy ratio (L/H ratio) of acetylated peptide […](ac)K (SEQ ID NO: 286) (Protein disulfide-isomerase [385], P4HB, drug:DMSO): 0.00 log 2
light to heavy ratio (L/H ratio), log 2 scale, acetylated peptide VYK(ac)EMYK (SEQ ID NO: 777) (Putative annexin A2-like protein [148], gene ANXA2P2, drug:DMSO): 0.00
light to heavy ratio (L/H ratio), log 2 scale, acetylated peptide SVPHLQK(ac)VFDR (SEQ ID NO: 776) (Putative annexin A2-like protein [227], gene ANXA2P2, drug:DMSO): 0.00
